Our source for the MIC, IC50 and Activity values is ChEMBL document CHEMBL1148934, “Antitubercular sesterterpenes from the Thai sponge Brachiaster sp” (J Nat Prod, 2004).

By MIC is commonly meant the smallest concentration in the dilution series that meets the test's criterion for growth inhibition. The low end stands for greater potency, the high end for weaker potency. One may read the IC50 as the midpoint of a concentration-inhibition curve. A high value points to weaker potency in that assay.

The test system of assay [1] is Mycobacterium tuberculosis. The assay is described as follows: Antitubercular activity against Mycobacterium tuberculosis H37Ra ATCC 25177 after 4 days by microtiter plate alamar blue technique. In kind it is functional, organism-based. The note with it: 96 h. (In general: The colour change of resazurin is a common sign of viable cells or microbes.)
Assay [2] deals with MCF7. The assay is described as follows: Cytotoxicity against human MCF7 cells by SRB assay. The format is functional, cell-based.
Assay [3] has as its system HT-29. The assay is described as follows: Cytotoxicity against human HT29 cells by SRB assay. In kind it is functional, cell-based.
Assay [4] concerns HeLa. The assay is described as follows: Cytotoxicity against human HeLa cells by SRB assay. In kind it is functional, cell-based. On the technique in general: Sulforhodamine B stains cellular protein and so reports cell mass.
The test system of assay [5] is KB. The assay is described as follows: Cytotoxicity against human KB cells by SRB assay. In kind it is functional, cell-based.
The subject of assay [6] is HT-29. Kind of assay: Cytotoxicity against human HT29 cells at 10 uM by SRB assay. The format is functional.
Assay [7] has as its system HeLa. The assay is described as follows: Cytotoxicity against human HeLa cells at 10 uM by SRB assay. In kind it is functional.
The test system of assay [8] is KB. Kind of assay: Cytotoxicity against human KB cells at 10 uM by SRB assay. In kind it is functional.
Assay [9] concerns MCF7. Kind of assay: Cytotoxicity against human MCF7 cells at 10 uM by SRB assay. The format is functional.
Assay [10] has as its system Mycobacterium tuberculosis. The assay is described as follows: Antimycobacterial activity against Mycobacterium tuberculosis H37Rv. In kind it is functional.

≈ marks a conversion by molar mass, not a printed value.

With `CC1(C)CCC[C@]2(C)[C@H]3C[C@@H](O)[C@]4(C)[C@H]5COC(=O)C5=CC[C@H]4[C@]3(C)CC[C@@H]12`, the MIC in [1] is 16 µM (≈ 6.19 µg/mL). Besides, the IC50 with MCF7 [2] came to 320 nM; in the assay on HT-29 [3], 910 nM; with HeLa [4], 1990 nM; in the assay on KB [5], 750 nM.

In [1], `CC(=O)OCC1=CC(=O)O[C@@H]1C/C=C(\CC/C=C(\C)CCC1=C(C)CCCC1(C)C)COC(C)=O` registered an MIC of 51 µM (≈ 24.8 µg/mL). This compound also had an IC50 in the assay with MCF7 [2] of 9340 nM. Also, the Activity in the assay with HT-29 [6], in the assay on HeLa [7] and in the assay on KB [8] was 80% throughout.

Turning to `CC(=O)O[C@@H]1C[C@@H]2[C@@]3(C)CCCC(C)(C)[C@@H]3CC[C@@]2(C)[C@@H]2CC=C3C(=O)OC[C@@H]3[C@@]12C`, the IC50 was 117000 nM in assay [1], 2340 nM in the assay on HT-29 [3], 5490 nM in the assay on HeLa [4] and 3010 nM in the assay on KB [5].

In the case of `CC(=O)O[C@@H]1OC(=O)C=C1[C@H]1CC=C(CC/C=C(\C)CCC2=C(C)CCCC2(C)C)[C@H](O)O1`, the MIC in assay [1] was 7 µM (≈ 3.21 µg/mL). Further, the IC50 worked out at 260 nM with MCF7 [2], 760 nM with HT-29 [3], 1680 nM in the assay on HeLa [4] and 630 nM with KB [5].

For the compound `CC(=O)O[C@@H]1OC(=O)C2=CC[C@H]3[C@]4(C)CC[C@H]5C(C)(C)CCC[C@]5(C)[C@H]4CC[C@]3(C)[C@H]21`, the MIC in [1] is 4 µM (≈ 1.71 µg/mL). The Activity in the assay with MCF7 [9], in the assay on HT-29 [6], in the assay with HeLa [7] and in the assay on KB [8] was 80% throughout.

Compound `CC(=O)OCC1=CC(=O)O[C@@H]1C/C=C(/CC/C=C(\C)CCC1=C(C)CCCC1(C)C)COC(C)=O` registered an MIC in [1] of 26 µM (≈ 12.7 µg/mL). In the assay with MCF7 [2], the IC50 came out at 5990 nM. Also, the Activity with HT-29 [6], with HeLa [7] and in the assay on KB [8] was 80% in each case.

Compound `CC(=O)O[C@@H]1OC=C2[C@@H](OC(C)=O)C[C@H]3[C@]4(C)CC[C@H]5C(C)(C)CCC[C@]5(C)[C@H]4C[C@@H](OC(C)=O)[C@]3(C)[C@H]21` [HETERONEMIN ACETATE] displayed an MIC in [1] of 6 µM. Further, half-maximal inhibition in the assay with MCF7 [2] (IC50) required 6450 nM. Also, the Activity with HT-29 [6], in the assay with HeLa [7] and in the assay on KB [8] was 80% in each case.

With `CC(=O)O[C@@H]1OC=C2[C@@H](OC(C)=O)C[C@H]3[C@]4(C)CC[C@H]5C(C)(C)CCC[C@]5(C)[C@H]4C[C@@H](O)[C@]3(C)[C@H]21` [HETERONEMIN], the MIC in [10] worked out at 6.25 µg/mL (≈ 12.8 µM); in assay [1], 3 µM (≈ 1.47 µg/mL). Further, the IC50 with MCF7 [2] turned out to be 290 nM; in the assay on HT-29 [3], 390 nM; in the assay with HeLa [4], 450 nM; in the assay on KB [5] it was 370 nM.

With `NNC(=O)c1ccncc1` [ISONIAZID], the minimal inhibitory concentration (MIC) in assay [1] stood at 0.29 µM (≈ 0.0398 µg/mL).

In [1], `NC[C@H]1O[C@H](O[C@H]2[C@H](O)[C@@H](O[C@H]3O[C@H](CO)[C@@H](O)[C@H](N)[C@H]3O)[C@H](N)C[C@@H]2N)[C@H](O)[C@@H](O)[C@@H]1O` [KANAMYCIN] returned an MIC of 3.5 µM (≈ 1.7 µg/mL).
